Measurements taken from PubChem BioAssay AID248 (DTP/NCI, 2004).
Several values for one entry are separate records, joined by “and”; a condition that tells them apart may be missing. Equal entries are not always repeated. Inconclusive results and toxic doses are left out. No stated cut-off is given here; in the data, active means T/C of 150% or more; inactive means T/C below 125%.

System: L1210 leukemia ip in BDF1 mice, survival T/C
Experiment: NCI In Vivo Anticancer Drug Screen. Data for tumor model L1210 Leukemia (intraperitoneal) in B6D2F1 (BDF1) mice
Settings: endpoint: mean survival time, higher = longer survival
Summary of the method: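 Tumor was transplanted into mice, which were then dosed with test compound or vehicle alone. Survival was recorded for each group, and the treated figure was expressed relative to the control figure.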

[1] = dose: 100.0 mg/kg/injection, schedule: Q04DX003 (ip), vehicle: saline
[2] = dose: 200.0 mg/kg/injection, schedule: Q04DX003 (ip), vehicle: saline
[3] = dose: 400.0 mg/kg/injection, schedule: Q04DX003 (ip), vehicle: saline
[4] = dose: 50.0 mg/kg/injection, schedule: Q01DX009 (ip), vehicle: Klucel (hydroxypropylcellulose) (HPC)
[5] = dose: 100.0 mg/kg/injection, schedule: Q01DX009 (ip), vehicle: Klucel (hydroxypropylcellulose) (HPC)
[6] = dose: 200.0 mg/kg/injection, schedule: Q01DX009 (ip), vehicle: Klucel (hydroxypropylcellulose) (HPC)
[7] = dose: 25.0 mg/kg/injection, schedule: Q04DX003 (ip), vehicle: Klucel (hydroxypropylcellulose) (HPC)
[8] = dose: 100.0 mg/kg/injection, schedule: Q01DX001 (ip), vehicle: saline
[9] = dose: 200.0 mg/kg/injection, schedule: Q01DX001 (ip), vehicle: saline
[10] = dose: 400.0 mg/kg/injection, schedule: Q01DX001 (ip), vehicle: saline
[11] = dose: 100.0 mg/kg/injection, schedule: Q01DX001 (ip), vehicle: carboxymethylcellulose (CMC)
[12] = dose: 200.0 mg/kg/injection, schedule: Q01DX001 (ip), vehicle: carboxymethylcellulose (CMC)
[13] = dose: 100.0 mg/kg/injection, schedule: Q04DX003 (ip), vehicle: Klucel (hydroxypropylcellulose) (HPC)
[14] = dose: 75.0 mg/kg/injection, schedule: Q01DX001 (ip), vehicle: saline
[15] = dose: 100.0 mg/kg/injection, schedule: Q01DX009 (ip), vehicle: saline with Tween-80
[16] = dose: 100.0 mg/kg/injection, schedule: Q04DX002 (ip), vehicle: saline with Tween-80
[17] = dose: 200.0 mg/kg/injection, schedule: Q01DX009 (ip), vehicle: saline with Tween-80
[18] = dose: 200.0 mg/kg/injection, schedule: Q04DX002 (ip), vehicle: saline with Tween-80
[19] = dose: 400.0 mg/kg/injection, schedule: Q01DX009 (ip), vehicle: saline with Tween-80
[20] = dose: 400.0 mg/kg/injection, schedule: Q04DX002 (ip), vehicle: saline with Tween-80
[21] = dose: 200.0 mg/kg/injection, schedule: Q04DX003 (ip), vehicle: Klucel (hydroxypropylcellulose) (HPC)
[22] = dose: 400.0 mg/kg/injection, schedule: Q04DX003 (ip), vehicle: Klucel (hydroxypropylcellulose) (HPC)

Measured: T/C

Cc1ccn(C)c(=O)c1
inactive: [1] 105 % of control | [2] 103 % of control | [3] 102 % of control

O=NSC(c1ccccc1)(c1ccccc1)c1ccccc1
inactive: [4] 94 % of control | [5] 89 % of control | [6] 93 % of control

CSc1ncnc2c1ncn2CC(=O)C1CCC2C3CCC4=CC(=O)CCC4(C)C3CCC12C (stereo unspecified)
inactive: dose: 100.0 mg/kg/injection, schedule: Q01DX001 (sc), vehicle: steriod suspending solution 99 % of control | dose: 200.0 mg/kg/injection, schedule: Q01DX001 (sc), vehicle: steriod suspending solution 100 % of control | dose: 400.0 mg/kg/injection, schedule: Q01DX001 (sc), vehicle: steriod suspending solution 99 % of control

[I][Pb]([c]1ccccc1)([c]1ccccc1)[c]1ccccc1
inactive: dose: 12.5 mg/kg/injection, schedule: Q04DX003 (ip), vehicle: Klucel (hydroxypropylcellulose) (HPC) 98 % of control | [7] 94 % of control

Cc1ccc(S(C)=O)cc1 (stereo unspecified)
inactive: [8] 102 % of control | [9] 95 % of control | [10] 95 % of control

Cc1cc(C)n(/N=C/c2ccccc2)c(=O)c1C#N
inactive: [11] 91 % of control | [12] 91 % of control | dose: 400.0 mg/kg/injection, schedule: Q01DX001 (ip), vehicle: carboxymethylcellulose (CMC) 91 % of control

CC(C)NC(C)C
inactive: dose: 100.0 mg/kg/injection, schedule: Q01DX001 (ip), vehicle: Klucel (hydroxypropylcellulose) (HPC) 104 % of control | dose: 200.0 mg/kg/injection, schedule: Q01DX001 (ip), vehicle: Klucel (hydroxypropylcellulose) (HPC) 101 % of control | dose: 400.0 mg/kg/injection, schedule: Q01DX001 (ip), vehicle: Klucel (hydroxypropylcellulose) (HPC) 107 % of control

CN(C)CCN(Cc1ccccc1)c1ccccc1
inactive: dose: 25.0 mg/kg/injection, schedule: Q01DX009 (ip), vehicle: Klucel (hydroxypropylcellulose) (HPC) 98 % of control | [7] 95 % of control | [4] 102 % of control | dose: 50.0 mg/kg/injection, schedule: Q04DX003 (ip), vehicle: Klucel (hydroxypropylcellulose) (HPC) 103 % of control | [5] 106 % of control | [13] 103 % of control

Cc1nc(N)nc(N)c1-c1ccc([N+](=O)[O-])cc1
inactive: [11] 95 % of control | [12] 95 % of control

CC1CCc2ccccc2N1C1=NCCO1 (stereo unspecified)
inactive: dose: 19.0 mg/kg/injection, schedule: Q04DX003 (ip), vehicle: saline 97 % of control | dose: 38.0 mg/kg/injection, schedule: Q04DX003 (ip), vehicle: saline 94 % of control | [14] 102 % of control

CC1(C)Oc2c(ccc(O)c2CN2CCCC2)C2=C1CCCC2
inactive: [8] 95 % of control | [9] 95 % of control | [10] 95 % of control

O=c1ccc2c([N+](=O)[O-])cc([N+](=O)[O-])c(O)c2[nH]1
inactive: [8] 101 % of control | [9] 101 % of control

Cc1ccc(C(C)C)c(OC(=O)Nc2cc(Cl)ccc2C)c1
inactive: dose: 100.0 mg/kg/injection, schedule: Q01DX001 (ip), vehicle: saline with Tween-80 98 % of control | [15] 100 % of control and 102 % of control | [16] 87 % of control and 88 % of control | [1] 92 % of control | dose: 200.0 mg/kg/injection, schedule: Q01DX001 (ip), vehicle: saline with Tween-80 95 % of control | [17] 102 % of control and 113 % of control | [18] 102 % of control and 89 % of control | [2] 92 % of control | dose: 400.0 mg/kg/injection, schedule: Q01DX001 (ip), vehicle: saline with Tween-80 93 % of control | [19] 100 % of control and 89 % of control | [20] 89 % of control and 91 % of control | [3] 92 % of control

S=C1N/N=C/NN/C=N/N1
inactive: dose: 10.0 mg/kg/injection, schedule: Q01DX001 (ip), vehicle: saline 105 % of control | dose: 20.0 mg/kg/injection, schedule: Q01DX001 (ip), vehicle: saline 94 % of control

COc1ccc(C(=O)N=C(c2ccccc2)c2ccccc2)cc1
inactive: [15] 95 % of control | [13] 92 % of control | [17] 98 % of control | [21] 97 % of control | [19] 93 % of control | [22] 95 % of control

CCNC(=S)S.[Zn+2]
inactive: dose: 1.0 mg/kg/injection, schedule: Q01DX015 (ip), vehicle: saline 102 % of control | dose: 2.0 mg/kg/injection, schedule: Q01DX015 (ip), vehicle: saline 100 % of control | dose: 4.0 mg/kg/injection, schedule: Q01DX015 (ip), vehicle: saline 102 % of control | dose: 8.0 mg/kg/injection, schedule: Q01DX015 (ip), vehicle: saline 108 % of control | dose: 10.0 mg/kg/injection, schedule: Q01DX001 (ip), vehicle: carboxymethylcellulose (CMC) 95 % of control | dose: 20.0 mg/kg/injection, schedule: Q01DX001 (ip), vehicle: carboxymethylcellulose (CMC) 97 % of control | dose: 40.0 mg/kg/injection, schedule: Q01DX001 (ip), vehicle: carboxymethylcellulose (CMC) 95 % of control | dose: 80.0 mg/kg/injection, schedule: Q01DX001 (ip), vehicle: carboxymethylcellulose (CMC) 97 % of control

ClC1(c2ccccc2)c2ccccc2C(Cl)(c2ccccc2)c2ccccc21 (stereo unspecified)
inactive: [16] 98 % of control | [18] 92 % of control | [20] 92 % of control

C/C=C/c1ccc(OC)cc1
inactive: dose: 100.0 mg/kg/injection, schedule: Q04DX002 (ip), vehicle: saline 104 % of control | dose: 200.0 mg/kg/injection, schedule: Q04DX002 (ip), vehicle: saline 104 % of control | dose: 400.0 mg/kg/injection, schedule: Q04DX002 (ip), vehicle: saline 97 % of control

Cc1ccc(C)c(NC(=O)c2ccccc2C(=O)O)c1
inactive: [5] 102 % of control | [13] 101 % of control | [6] 104 % of control | [21] 102 % of control | dose: 400.0 mg/kg/injection, schedule: Q01DX009 (ip), vehicle: Klucel (hydroxypropylcellulose) (HPC) 93 % of control | [22] 98 % of control

O=C(O)C(Cl)C(=O)O
inactive: dose: 4.68 mg/kg/injection, schedule: Q01DX009 (ip), vehicle: saline 102 % of control | dose: 9.37 mg/kg/injection, schedule: Q01DX009 (ip), vehicle: saline 102 % of control | dose: 18.75 mg/kg/injection, schedule: Q01DX009 (ip), vehicle: saline 94 % of control | dose: 18.75 mg/kg/injection, schedule: Q04DX003 (ip), vehicle: saline 105 % of control | dose: 37.5 mg/kg/injection, schedule: Q04DX003 (ip), vehicle: saline 97 % of control | [14] 107 % of control

CC(C)=C(B1OC(C)(C)C(C)(C)O1)B1OC(C)(C)C(C)(C)O1
inactive: [13] 93 % of control | [21] 95 % of control | [22] 97 % of control

C[n+]1c(-c2cc(Cl)cc(Cl)c2)c2cc([N+](=O)[O-])ccc2c2ccccc21
inactive: dose: 50.0 mg/kg/injection, schedule: Q01DX009 (ip), vehicle: water 109 % of control | dose: 100.0 mg/kg/injection, schedule: Q01DX009 (ip), vehicle: water 96 % of control | dose: 100.0 mg/kg/injection, schedule: Q04DX003 (ip), vehicle: water 92 % of control | dose: 200.0 mg/kg/injection, schedule: Q01DX009 (ip), vehicle: water 98 % of control | dose: 200.0 mg/kg/injection, schedule: Q04DX003 (ip), vehicle: water 96 % of control | dose: 400.0 mg/kg/injection, schedule: Q04DX003 (ip), vehicle: water 93 % of control
